Values of other authors in PubChem BioAssay AID1259409 (Chemical Carcinogenesis Research Information System (CCRIS), 2018).

Test system: rodent chemically induced tumor inhibition, incidence and multiplicity
Experiment: CCRIS tumor inhibitor studies

Compound: Cc1cc(C(C)(C)C)c(O)c(C(C)(C)C)c1
- tumour outcome (control, treated, inhibition, significance) (Carcinogen: 7,12-DIMETHYLBENZ[A]ANTHRACENE, 57-97-6, Dose [Inhibitor]: 200 MG ML 1 ML IN OLIVE OIL ONCE (STUDY DURATION: 18 WK), Route [Inhibitor]: GAVAGE, Species: RAT, Strain/Sex: SPRAGUE-DAWLEY/FEMALE, Target Tissue: Type of Lesion: MAMMARY GLAND: TUMOR, Dose [Carcinogen]: 12 MG IN 1 ML OLIVE OIL ADMINISTERED 1 HR AFTER INHIBITOR, Promoter: NONE USED): 27/34 (79%), 5/18 (28%), 64%, p<0.01
- tumour outcome (control, treated, inhibition, significance) (Carcinogen: 7,12-DIMETHYLBENZ[A]ANTHRACENE, 57-97-6, Dose [Inhibitor]: 1000 UG APPLIED 6 HR BEFORE, 5 MIN BEFORE, AND 6 HR AFTER DMBA (STUDY DURATION: 28 WK), Route [Inhibitor]: DERMAL, Species: MOUSE, Strain/Sex: CD-1/FEMALE, Target Tissue: Type of Lesion: SKIN: PAPILLOMA, Dose [Carcinogen]: 2.56 UG APPLIED ONCE 5 MIN AFTER INHIBITOR, Promoter: 12-O-TETRADECANOYLPHORBOL-13-ACETATE, 16561-29-8): (82%, 35%, 57%, not calculated
- tumour outcome (control, treated, inhibition, significance) (Carcinogen: 7,12-DIMETHYLBENZ[A]ANTHRACENE, 57-97-6, Dose [Inhibitor]: 1000 UG APPLIED ONCE 5 MIN BEFORE DMBA (STUDY DURATION 28 WK), Route [Inhibitor]: DERMAL, Species: MOUSE, Strain/Sex: CD-1/FEMALE, Target Tissue: Type of Lesion: SKIN: PAPILLOMA, Dose [Carcinogen]: 2.56 UG APPLIED ONCE 5 MIN AFTER INHIBITOR, Promoter: 12-O-TETRADECANOYLPHORBOL-13-ACETATE, 16561-29-8): 82%, 57%, 30%, not calculated
- tumour outcome (control, treated, inhibition, significance) (Carcinogen: 7,12-DIMETHYLBENZ[A]ANTHRACENE, 57-97-6, Dose [Inhibitor]: 2500 MG/KG IN DIET STARTING 2 WK BEFORE UNTIL 1 WK AFTER CARCINOGEN ADMINISTRATION (STUDY DURATION: 32 WK), Route [Inhibitor]: ORAL, Species: RAT, Strain/Sex: SPRAGUE-DAWLEY/FEMALE, Target Tissue: Type of Lesion: MAMMARY GLAND: TUMOR, Dose [Carcinogen]: 8 MG IN 1 ML SESAME OIL ADMINISTERED ONCE, Promoter: NONE USED): 88%, 68%, 23%, not significant
- tumour outcome (control, treated, inhibition, significance) (Carcinogen: BENZO[A]PYRENE, 50-32-8, Dose [Inhibitor]: 5 MG/G DIET IN SESAME OIL (4%) 3/WK FOR 28 D SIMULTANEOUSLY WITH CARCINOGEN (STUDY DURATION: 21 WK), Route [Inhibitor]: ORAL, Species: MOUSE, Strain/Sex: A/HEJ/FEMALE, Target Tissue: Type of Lesion: FORESTOMACH: TUMOR, Dose [Carcinogen]: 1 MG/G DIET IN 4% SESAME OIL IN DIET 3/WK FOR 28 D, Promoter: NONE USED): 12/12 (100%), 2/9 (22%), 78%, p<0.001
- tumour outcome (control, treated, inhibition, significance) (Carcinogen: BENZO[A]PYRENE, 50-32-8, Dose [Inhibitor]: 10 MG/G DIET 3/WK FOR 28 D SIMULTANEOUSLY WITH CARCINOGEN (STUDY DURATION: 28 WK), Route [Inhibitor]: ORAL, Species: MOUSE, Strain/Sex: ICR/FEMALE, Target Tissue: Type of Lesion: FORESTOMACH: TUMOR, Dose [Carcinogen]: 0.3 MG/G DIET 3/WK FOR 28 D, Promoter: NONE USED): 13/19 (68%), 10/20 (50%), 26%, not significant
- tumour outcome (control, treated, inhibition, significance) (Carcinogen: DIETHYLNITROSAMINE, 55-18-5, Dose [Inhibitor]: 0, 50 MG/KG IN CORN OIL FOR DURATION OF STUDY BEGINNING 7 D PRIOR TO FIRST CARCINOGEN DOSE (STUDY DURATION: 6 MO), Route [Inhibitor]: GAVAGE, Species: RAT, Strain/Sex: BD6/FEMALE, Target Tissue: Type of Lesion: ESOPHAGUS: TUMOR, Dose [Carcinogen]: 80 MG/KG BW 1/WK FOR 6 WK, Promoter: NONE USED): 14%, 0%, 100%, not significant
- tumour outcome (control, treated, inhibition, significance) (Carcinogen: DIETHYLNITROSAMINE, 55-18-5, Dose [Inhibitor]: 0, 50 MG/KG IN CORN OIL FOR DURATION OF STUDY BEGINNING 7 D PRIOR TO FIRST CARCINOGEN DOSE (STUDY DURATION: 6 MO), Route [Inhibitor]: GAVAGE, Species: RAT, Strain/Sex: BD6/FEMALE, Target Tissue: Type of Lesion: ESOPHAGUS: TUMOR, Dose [Carcinogen]: 80 MG/KG BW 1/WK FOR 8 WK, Promoter: NONE USED): 20%, 4%, 80%, not significant
- tumour outcome (control, treated, inhibition, significance) (Carcinogen: DIETHYLNITROSAMINE, 55-18-5, Dose [Inhibitor]: 0, 50 MG/KG IN CORN OIL FOR DURATION OF STUDY BEGINNING 7 D PRIOR TO FIRST CARCINOGEN DOSE (STUDY DURATION: 6 MO), Route [Inhibitor]: GAVAGE, Species: RAT, Strain/Sex: BD6/FEMALE, Target Tissue: Type of Lesion: LIVER: TUMOR, Dose [Carcinogen]: 80 MG/KG BW 1/WK FOR 6 WK, Promoter: NONE USED): 52%, 23%, 56%, not significant
- tumour outcome (control, treated, inhibition, significance) (Carcinogen: DIETHYLNITROSAMINE, 55-18-5, Dose [Inhibitor]: 0, 50 MG/KG IN CORN OIL FOR DURATION OF STUDY BEGINNING 7 D PRIOR TO FIRST CARCINOGEN DOSE (STUDY DURATION: 6 MO), Route [Inhibitor]: GAVAGE, Species: RAT, Strain/Sex: BD6/FEMALE, Target Tissue: Type of Lesion: LIVER: TUMOR, Dose [Carcinogen]: 80 MG/KG BW 1/WK FOR 8 WK, Promoter: NONE USED): 83%, 72%, 13%, not significant
- tumour outcome (control, treated, inhibition, significance) (Carcinogen: HYDRAZINE SULFATE, 10034-93-2, Dose [Inhibitor]: 5000 PPM IN DIET STARTING 1 WK PRIOR TO ADMINISTRATION OF CARCINOGEN UNTIL END OF EXPERIMENT (STUDY DURATION: APPROXIMAT, Route [Inhibitor]: ORAL, Species: MOUSE, Strain/Sex: SWISS/MALE, FEMALE, Target Tissue: Type of Lesion: LIVER AND LUNG: COMBINED TUMORS, Dose [Carcinogen]: 1.1 MG/D 5 D/WK UNTIL 12 MO OF AGE, Promoter: NONE USED): 24/29 (83%), 19/28 (68%), 18%, not significant
- tumour outcome (control, treated, inhibition, significance) (Carcinogen: ISONIAZID, 54-85-3, Dose [Inhibitor]: 5000 PPM IN DIET STARTING 1 WK PRIOR TO ADMINISTRATION OF CARCINOGEN UNTIL END OF EXPERIMENT (STUDY DURATION: APPROXIMAT, Route [Inhibitor]: ORAL, Species: MOUSE, Strain/Sex: SWISS/MALE, FEMALE, Target Tissue: Type of Lesion: LIVER AND LUNG: COMBINED TUMORS, Dose [Carcinogen]: 1.1 MG/D 5 D/WK UNTIL 25 M OF AGE, Promoter: NONE USED): 16/29 (55%), 4/20 (20%), 64%, p<0.05
- tumour outcome (control, treated, inhibition, significance) (Carcinogen: ISONIAZID, 54-85-3, Dose [Inhibitor]: 5000 PPM IN DIET STARTING 1 WK PRIOR TO ADMINISTRATION OF CARCINOGEN UNTIL END OF EXPERIMENT (STUDY DURATION: APPROXIMAT, Route [Inhibitor]: ORAL, Species: MOUSE, Strain/Sex: SWISS/MALE, FEMALE, Target Tissue: Type of Lesion: LIVER AND LUNG: COMBINED TUMORS, Dose [Carcinogen]: 1.1 MG/D 5 D/WK UNTIL 25 MO OF AGE, Promoter: NONE USED): 16/29 (55%), 5/20 (25%), 54%, p<0.05
- tumour outcome (control, treated, inhibition, significance) (Carcinogen: N-BIS(2-HYDROXYPROPYL)NITROSAMINE, 53609-64-6, Dose [Inhibitor]: 0, 1% IN DIET FOR 30 WK BEGINNING POST CARCINOGEN TREATMENT (STUDY DURATION: 32 WK), Route [Inhibitor]: ORAL, Species: RAT, Strain/Sex: F344/MALE, Target Tissue: Type of Lesion: BLADDER: ADENOMA, Dose [Carcinogen]: 0.1% IN DRINKING WATER FOR 2 WK, Promoter: NONE USED): 5%, 0%, 100%, not calculated
- tumour outcome (control, treated, inhibition, significance) (Carcinogen: N-BIS(2-HYDROXYPROPYL)NITROSAMINE, 53609-64-6, Dose [Inhibitor]: 0, 1% IN DIET FOR 30 WK BEGINNING POST CARCINOGEN TREATMENT (STUDY DURATION: 32 WK), Route [Inhibitor]: ORAL, Species: RAT, Strain/Sex: F344/MALE, Target Tissue: Type of Lesion: KIDNEY: TUMOR, Dose [Carcinogen]: 0.1% IN DRINKING WATER FOR 2 WK, Promoter: NONE USED): 10%, 30%, -200%, not calculated
